In paper PMC10584170, “Machine learning-based phenotypic imaging to characterise the targetable biology of Plasmodium falciparum male gametocytes for the development of transmission-blocking antimalarials” (PLOS Pathogens, 2023):
pIC50: −log10 of the molar value. Read-outs that look alike come from different tables or passages of the source.

Legend:
[1] = test system: P. falciparum male gametocytes; test: P. falciparum Dual Gamete Formation Assay (PfDGFA), male readout (exflagellation); format: cell-based, Plasmodium falciparum NF54; conditions: for Activity: hit = >50% inhibition in male or female readout in at least 3 replicates, 0 = no class assigned; for inhibition at 2 µM: 24h preincubation with gametocytes
Procedure, shortened: (§1)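 Day-14 NF54 gametocytes were incubated with compound for 24 h at 37°C under 1% O2/3% CO2/96% N2. Gametogenesis was triggered with ookinete medium (0.1 μM xanthurenic acid) plus Cy3-anti-Pfs25, and exflagellation was imaged by brightfield after cooling to 4°C then 28°C. Females were imaged by Pfs25 fluorescence 24 h later at 28°C.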

[2] = test system: P. falciparum female gametocytes; test: P. falciparum Dual Gamete Formation Assay (PfDGFA), female readout (Pfs25-positive female gametes); format: cell-based, Plasmodium falciparum NF54; conditions: for inhibition at 2 µM: 24h preincubation with gametocytes
Procedure, shortened: as §1

[3] = 2µM, 24h preincubation with gametocytes prior to induction of gametogenesis, average of replicates
[4] = 2µM, 24h preincubation with gametocytes prior to induction of gametogenesis, replicate R1
[5] = 2µM, 24h preincubation with gametocytes prior to induction of gametogenesis, replicate R3
[6] = 2µM, 24h preincubation with gametocytes prior to induction of gametogenesis, replicate R4
[7] = 2µM, 24h preincubation, number of replicates with >50% inhibition in the male readout
[8] = 2µM, 24h preincubation, number of replicates with >50% inhibition in the female readout
[9] = 2µM, 24h preincubation, hits selected on >50% inhibition in the male readout across replicates
[10] = PfDGFA at 2µM, 24h preincubation
[11] = 2µM, 24h preincubation, hits selected on >50% inhibition in the female readout across replicates
[12] = PfDGFA at 2µM, 24h preincubation with gametocytes prior to induction of gametogenesis, replicate R1
[13] = PfDGFA at 2µM, 24h preincubation with gametocytes prior to induction of gametogenesis, replicate R3
[14] = PfDGFA at 2µM, 24h preincubation with gametocytes prior to induction of gametogenesis, replicate R4
[15] = PfDGFA at 2µM, 24h preincubation, average of replicates

SMILES	Average inhibition male (%) [1, 3]	% inhibition male (individual replicates) R1 [1, 4]	% inhibition male (individual replicates) R3 [1, 5]	% inhibition male (individual replicates) R4 [1, 6]	Average inhibition female (%) [2, 3]	% inhibition female (individual replicates) R1 [2, 4]	% inhibition female (individual replicates) R3 [2, 5]	% inhibition female (individual replicates) R4 [2, 6]	HitlevelM [1, 9]	Activity [1, 10]	HitlevelF [2, 11]	further results
Cl.N#Cc1c(F)cc(N2CCC(NCC[C@H](N)Cc3ccc(F)c(F)c3)CC2)cc1F [TCMDC-132121]	31.7%	33.4%	31.1%	56.8%	20.0%	13.8%	22.9%	12.3%				HitlevelM [1, 7]: 1; HitlevelF [2, 8]: 0
Cc1cc(-c2cccc(CNC3CCN(C)CC3)c2)ccc1S(=O)(=O)NCc1ccccc1.O=C(O)C(F)(F)F [TCMDC-132379]	43.8%	43.1%	25.4%	55.6%	17.5%	20.6%	25.5%	-4.5%	2	0	0	
CC(C)N(Cc1cnc2nc(N)nc(N)c2n1)c1ccc(Cl)c(Cl)c1 [TCMDC-137675]												% inhibition male (individual replicates) R1 [1, 12]: 8.1%; % inhibition male (individual replicates) R3 [1, 13]: 1.6%; % inhibition male (individual replicates) R4 [1, 14]: -34.5%; Average inhibition male (%) [1, 15]: -1.6%; % inhibition female (individual replicates) R1 [2, 12]: 8.3%; % inhibition female (individual replicates) R3 [2, 13]: -2.9%; % inhibition female (individual replicates) R4 [2, 14]: 6.8%; Average inhibition female (%) [2, 15]: 1.4%
C[C@H](Cc1ccc(OCCNC[C@H](O)c2cccc(Cl)c2)cc1)NC[C@H](O)c1ccc(Cl)c(Cl)c1.O [TCMDC-131547]	22.6%	62.1%	23.6%	9.5%	17.7%	20.3%	33.9%	3.3%	1	0	0	
CCN1CCC2(c3cccc(OC)c3)Cc3nc4ccccc4c(-c4ccccc4)c3CC2C1 (centres unmarked) [TCMDC-138968]	50.6%	28.7%	22.4%	66.9%	33.9%	34.1%	23.7%	21.6%				HitlevelM [1, 7]: 2; HitlevelF [2, 8]: 1
CN(C)CCCOc1cccc(CCNCc2cccc(Oc3ccc(Cl)cc3)c2)c1.O=C(O)C(F)(F)F [TCMDC-140091]	24.7%	7.1%	12.3%	44.2%	6.3%	16.6%	-0.66%	-7.8%	0	0	0	
O=C(C1CCCC1)N1CCOC(CCN2CCC(c3ccccc3)CC2)(c2ccc(Cl)c(Cl)c2)C1 (centres unmarked) [TCMDC-135327]												% inhibition male (individual replicates) R1 [1, 12]: 1.8%; % inhibition male (individual replicates) R3 [1, 13]: 11.7%; % inhibition male (individual replicates) R4 [1, 14]: 15.6%; Average inhibition male (%) [1, 15]: 8.1%; % inhibition female (individual replicates) R1 [2, 12]: 8.8%; % inhibition female (individual replicates) R3 [2, 13]: -20.5%; % inhibition female (individual replicates) R4 [2, 14]: 17.1%; Average inhibition female (%) [2, 15]: -1.8%
COc1ccc(Cc2cnc3nc(N)nc(N)c3c2C)cc1OC.O=S(=O)(O)CCO [TCMDC-138057]	-16.7%	13.3%	-15.1%	-55.1%	4.5%	12.4%	-12.7%	12.4%	0	0	0	
Fc1ccc2[nH]c(-c3cccc(-c4ccc(CNCCN5CCNCC5)cc4)c3)nc2c1.O=C(O)C(F)(F)F [TCMDC-132863]	43.0%	23.0%	12.3%	70.2%	14.3%	16.6%	-21.5%	42.6%	2	0	0	
CN1CCC(NCc2ccc(-c3ccc(S(=O)(=O)NCc4ccccc4)s3)cc2)CC1.O=C(O)C(F)(F)F [TCMDC-132231]	34.4%	32.6%		32.4%	9.7%	17.2%	1.4%	10.3%	0	0	0	
COc1ccc2nccc([C@H](O)CN3CCC(NCc4ccc5c(c4C)OCCO5)CC3)c2n1.Cl [TCMDC-136066]	-9.6%	-4.0%	-34.1%	0.2%	6.6%	21.2%	-26.0%	9.8%	0	0	0	
C#C[C@H]1O[C@@H](n2cnc3c(Nc4cc(Br)cc(C(F)(F)F)c4)ncnc32)[C@H](O)[C@@H]1O [TCMDC-135185]												Selectivity Ratio M ([1]; HepG2 Tox50 versus male IC50): 328.28; inhibition at 2 µM ([1]; Plasmodium falciparum, 2µM, average of replicates, read-out: Average inhibition male (%)): 97%; inhibition at 2 µM ([1]; Plasmodium falciparum, 2µM, replicate R1, read-out: % inhibition male (individual replicates) R1): 97.5%; inhibition at 2 µM ([1]; Plasmodium falciparum, 2µM, replicate R2, read-out: % inhibition male (individual replicates) R2): 96.8%; inhibition at 2 µM ([1]; Plasmodium falciparum, 2µM, replicate R3, read-out: % inhibition male (individual replicates) R3): 98%; inhibition at 2 µM ([1]; Plasmodium falciparum, 2µM, replicate R4, read-out: % inhibition male (individual replicates) R4): 95.6%; pIC50 ([1]; Plasmodium falciparum, PfDGFA, 24 h incubation with gametocytes before induction, exflagellation readout, read-out: Male IC50): 6.52; Selectivity ratio F ([2]; HepG2 Tox50 versus female IC50): 10; inhibition at 2 µM ([2]; Plasmodium falciparum, 2µM, average of replicates, read-out: Average inhibition female (%)): 3.7%; inhibition at 2 µM ([2]; Plasmodium falciparum, 2µM, replicate R1, read-out: % inhibition female (individual replicates) R1): 8.3%; inhibition at 2 µM ([2]; Plasmodium falciparum, 2µM, replicate R2, read-out: % inhibition female (individual replicates) R2): -2.8%; inhibition at 2 µM ([2]; Plasmodium falciparum, 2µM, replicate R3, read-out: % inhibition female (individual replicates) R3): -10.2%; inhibition at 2 µM ([2]; Plasmodium falciparum, 2µM, replicate R4, read-out: % inhibition female (individual replicates) R4): 19.5%; pIC50 ([2]; Plasmodium falciparum, PfDGFA, 24 h incubation with gametocytes before induction, female gamete readout, read-out: Female IC50): < 5.00
CC1(C)N=C(N)N=C(N)N1OCc1cc(Cl)c(CON2C(N)=NC(N)=NC2(C)C)cc1Cl [TCMDC-131624]												% inhibition male (individual replicates) R1 [1, 12]: 2.1%; % inhibition male (individual replicates) R4 [1, 14]: -25.6%; Average inhibition male (%) [1, 15]: -4.5%; % inhibition female (individual replicates) R1 [2, 12]: 0.3%; % inhibition female (individual replicates) R3 [2, 13]: 11.6%; % inhibition female (individual replicates) R4 [2, 14]: 5.2%; Average inhibition female (%) [2, 15]: 2.9%
COc1ccc(CNC2Cc3ccccc3C2)cc1-c1cccc(S(=O)(=O)NCCN2CCCC2)c1.O=C(O)C(F)(F)F [TCMDC-132269]	7.0%	7.1%	-13.3%	18.2%	23.4%	14.9%	-7.5%	55.1%				HitlevelM [1, 7]: 0; HitlevelF [2, 8]: 1
